The text below walks through data of the supplement of paper PMC10307832.

Common to all, as to test: relative viability (nuclei count vs DMSO), 5 days (fraction); higher = more cells survive
Compound in assay [1]: C[C@]1(O)C[C@@H](c2nc(-c3ccc4ccc(-c5ccccc5)nc4c3)c3c(N)nccn32)C1 [Linsitinib]
In short, it runs like this:
(§1)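 Following overnight incubation at 37 °C, lung cancer cell lines in 1536-well plates were pinned with five library-drug doses (not always all listed) in √10 steps on vehicle-anchored plates. The cells then spent 5 days without medium change before a combined fix, permeabilisation and Hoechst stain, 4× imaging and MetaXpress nuclear counts. Viability is the treated-to-vehicle ratio of nuclei, taken as the median across plates. Only plates with control CV below 25% and at least one doubling passed.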

Compound in assay [2]: Cc1ccc(C(=O)N(CCCN)[C@@H](c2nc3cc(Cl)ccc3c(=O)n2Cc2ccccc2)C(C)C)cc1 [Ispinesib]
In short, it runs like this:
as §1

Compound in assay [3]: C[C@]1(O)C[C@@H](c2nc(-c3ccc4ccc(-c5ccccc5)nc4c3)c3c(N)nccn32)C1 [Linsitinib] + N=C(N)NC(=N)NCCc1ccccc1 [Phenformin] (partner 250 µM)
In short, it runs like this: (§2)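 Lung cancer cell lines were seeded in 1536-well plates and dosed by pin tool the next day, with either a single drug or a fixed anchor-drug dose combined with five library-drug doses (not always all listed) spaced in √10 steps. Five days later, one step fixed the cells and stained their nuclei (final 0.05% Triton X-100, 1% formaldehyde, 1 ug/ml Hoechst), and nuclei were counted on 4× images. Relative viability is the nuclei count in treated wells divided by the count in vehicle wells, and each value is the median of duplicate plates.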

Compound in assay [4]: C[C@]1(O)C[C@@H](c2nc(-c3ccc4ccc(-c5ccccc5)nc4c3)c3c(N)nccn32)C1 [Linsitinib] + CC1(C)CCC(c2ccc(Cl)cc2)=C(CN2CCN(c3ccc(C(=O)NS(=O)(=O)c4ccc(N[C@H](CCN5CCOCC5)CSc5ccccc5)c(S(=O)(=O)C(F)(F)F)c4)cc3)CC2)C1 [Navitoclax] (partner 0.5 µM)
A digest of the protocol: as §2

Regarding UMC-11, the relative viability in assay [1] (0.01 µM) is 0.975; in assay [1] (0.03162 µM), 0.854; in assay [1] (0.1 µM), 1.02; in assay [1] (0.3162 µM), 0.546; in assay [1] (1 µM), 0.875; in assay [1] (1 µM, anchor plate) it was 1.01. Besides, the relative viability in assay [2] (0.001 µM) was 1.01; in assay [2] (0.003162 µM), 1.02; in assay [2] (0.01 µM), 0.835; in assay [2] (0.03162 µM) it was 0.32; in assay [2] (0.1 µM), 0.264; in assay [3] (first compound 0.01 µM), 0.332. For the same cell line, the relative viability in assay [3] (first compound 0.03162 µM) turned out to be 0.29; in assay [3] (first compound 0.1 µM), 0.343; in assay [3] (first compound 1 µM) it was 0.321; in assay [4] (first compound 0.01 µM) it was 0.317; in assay [4] (first compound 0.03162 µM) it was 0.301; in assay [4] (first compound 0.1 µM) it was 0.315. Moreover, the relative viability in assay [4] (first compound 1 µM) is 0.302.
